The NIST ThermoML archive (doi:10.1016/j.tca.2013.06.040)

Legend:
[1] = molar heat capacity at constant pressure; conditions: 101.33 kPa, Small sample (50 mg) DSC
[2] = Molar enthalpy of transition or fusion; conditions: DSC
[3] = DTA

O=[N+]([O-])[O-].[Li+] [lithium nitrate]
[1]
Conditions | molar heat capacity at constant pressure [J/K/mol]
310.7 K, Crystal | 63.7
315.7 K, Crystal | 56.8
320.6 K, Crystal | 117
325.6 K, Crystal | 114
330.6 K, Crystal | 80.3
335.6 K, Crystal | 72.2
340.6 K, Crystal | 63.4
345.6 K, Crystal | 78.2
350.6 K, Crystal | 88.7
355.6 K, Crystal | 83.5
360.6 K, Crystal | 80.8
365.6 K, Crystal | 81.5
370.6 K, Crystal | 75.6
375.6 K, Crystal | 79.1
380.6 K, Crystal | 77.3
385.6 K, Crystal | 80.7
390.6 K, Crystal | 81.1
395.6 K, Crystal | 83.9
400.6 K, Crystal | 87.5
405.5 K, Crystal | 86.4
410.5 K, Crystal | 81.9
415.5 K, Crystal | 90.3
420.5 K, Crystal | 87.1
425.5 K, Crystal | 86.2
430.5 K, Crystal | 91.5
435.6 K, Crystal | 94.4
440.6 K, Crystal | 95.6
445.5 K, Crystal | 88.4
450.5 K, Crystal | 93.6
455.4 K, Crystal | 90.4
460.3 K, Crystal | 93.1
465.4 K, Crystal | 96.3
470.5 K, Crystal | 97.4
475.5 K, Crystal | 91.5
480.6 K, Crystal | 94.5
485.5 K, Crystal | 95.6
490.5 K, Crystal | 99.4
495.5 K, Crystal | 102
500.5 K, Crystal | 98.8
505.5 K, Crystal | 103
510.5 K, Crystal | 110
515.5 K, Crystal | 125
520.5 K, Crystal | 127
535.5 K, Liquid | 114
540.5 K, Liquid | 122
545.5 K, Liquid | 122
550.5 K, Liquid | 125
555.5 K, Liquid | 117
560.5 K, Liquid | 121
570.5 K, Liquid | 122
575.5 K, Liquid | 123
580.5 K, Liquid | 116
585.5 K, Liquid | 121
590.5 K, Liquid | 119
595.5 K, Liquid | 122
600.5 K, Liquid | 119
610.5 K, Liquid | 113
615.5 K, Liquid | 120
620.5 K, Liquid | 110

Crystal
Conditions | Molar enthalpy of transition or fusion [kcal/mol] | Triple point temperature [K]
[2] | 5.86 | –
[3] | – | 525

O=[N+]([O-])[O-].O=[N+]([O-])[O-].[Li+].[Rb+] [lithium rubidium nitrate]
[1]
Conditions | molar heat capacity at constant pressure [J/K/mol]
315.6 K, Crystal | 150.8
320.6 K, Crystal | 166.6
325.6 K, Crystal | 171.8
330.6 K, Crystal | 190.8
335.6 K, Crystal | 179.2
340.6 K, Crystal | 184.8
345.6 K, Crystal | 184
350.6 K, Crystal | 200
355.6 K, Crystal | 204
360.6 K, Crystal | 222
365.6 K, Crystal | 222
370.6 K, Crystal | 190.6
375.6 K, Crystal | 206
380.6 K, Crystal | 189
385.6 K, Crystal | 196.4
390.5 K, Crystal | 206
395.5 K, Crystal | 224
400.5 K, Crystal | 191.4
405.5 K, Crystal | 210
410.5 K, Crystal | 195.4
420.5 K, Crystal | 206
425.5 K, Crystal | 224
435.5 K, Crystal | 232
445.5 K, Crystal | 262
460.5 K, Liquid | 374
470.5 K, Liquid | 346
475.5 K, Liquid | 342
480.5 K, Liquid | 364
485.5 K, Liquid | 382
490.5 K, Liquid | 384

Crystal
Conditions | Molar enthalpy of transition or fusion [kcal/mol] | Triple point temperature [K]
[2] | 5.31 | –
[3] | – | 460

O=[N+]([O-])[O-].[Rb+] [rubidium nitrate]
[1]
Conditions | molar heat capacity at constant pressure [J/K/mol]
325.6 K, Crystal 4 | 99
330.6 K, Crystal 4 | 99.5
335.6 K, Crystal 4 | 101
340.6 K, Crystal 4 | 102
345.6 K, Crystal 4 | 101
350.6 K, Crystal 4 | 101
355.6 K, Crystal 4 | 102
360.6 K, Crystal 4 | 100
365.6 K, Crystal 4 | 104
370.6 K, Crystal 4 | 104
375.6 K, Crystal 4 | 106
380.6 K, Crystal 4 | 107
385.6 K, Crystal 4 | 109
390.6 K, Crystal 4 | 109
395.6 K, Crystal 4 | 110
400.6 K, Crystal 4 | 111
405.6 K, Crystal 4 | 112
410.6 K, Crystal 4 | 113
415.6 K, Crystal 4 | 113
420.6 K, Crystal 4 | 114
425.5 K, Crystal 4 | 123
430.5 K, Crystal 4 | 118
435.5 K, Crystal 4 | 123
440.5 K, Crystal 3 | 833
445.5 K, Crystal 3 | 134
450.5 K, Crystal 3 | 134
455.5 K, Crystal 3 | 135
460.5 K, Crystal 3 | 136
465.5 K, Crystal 3 | 136
470.5 K, Crystal 3 | 138
475.5 K, Crystal 3 | 138
480.5 K, Crystal 3 | 138
485.5 K, Crystal 3 | 138
490.5 K, Crystal 3 | 139
495.5 K, Crystal 3 | 139
500.5 K, Crystal 2 | 303
505.5 K, Crystal 2 | 368
510.5 K, Crystal 2 | 175
515.5 K, Crystal 2 | 132
520.5 K, Crystal 2 | 134
525.5 K, Crystal 2 | 135
530.5 K, Crystal 2 | 136
535.5 K, Crystal 2 | 136
540.5 K, Crystal 2 | 136
545.5 K, Crystal 2 | 137
550.5 K, Crystal 2 | 161
555.5 K, Crystal 1 | 151
560.5 K, Crystal 1 | 399
565.5 K, Crystal 1 | 112
570.5 K, Crystal 1 | 113
575.5 K, Crystal 1 | 111
580.5 K, Crystal 1 | 115
585.5 K, Liquid | 744
590.5 K, Liquid | 249
595.5 K, Liquid | 157
600.5 K, Liquid | 140
605.5 K, Liquid | 138
610.5 K, Liquid | 138
615.5 K, Liquid | 138
620.5 K, Liquid | 137

Conditions | Molar enthalpy of transition or fusion, Crystal 1 [kcal/mol] | Molar enthalpy of transition or fusion, Crystal 2 [kcal/mol] | Molar enthalpy of transition or fusion, Crystal 3 [kcal/mol] | Molar enthalpy of transition or fusion, Crystal 4 [kcal/mol] | Triple point temperature, Crystal 1 [K] | Triple point temperature, Crystal 2 [K] | Triple point temperature, Crystal 3 [K] | Triple point temperature, Crystal 4 [K]
[2] | 1.12 | 0.299 | 0.554 | 0.889 | – | – | – | –
[3] | – | – | – | – | 583 | 555 | 500 | 437
